In ChEMBL document CHEMBL6109137, “Design, Synthesis, Evaluation, and SAR of 5-Phenylisoindoline Derivatives, a Potent Class of Small-Molecule Inhibitors Targeting the Programmed Cell Death-1/Programmed Cell Death-Ligand 1 (PD-1/PD-L1) Interaction” (J Med Chem, 2025):
The source made the active and inactive calls. The calls are words filed in the database; no cut-off is given here.

What was measured:
[1] = Toxicity in C57BL/6J mouse implanted with mouse MC38 cells assessed as change in brain index at 5 to 20 mg/kg, ip qd for 13 days; assay type: organism-based; conditions: in vivo, 312 h, dose 5-20 mg/kg, time 13 day
[2] = Toxicity in C57BL/6J mouse implanted with mouse MC38 cells assessed as change in lung index at 5 to 20 mg/kg, ip qd for 13 days; assay type: organism-based; conditions: in vivo, 312 h, dose 5-20 mg/kg, time 13 day
[3] = Cmax in Sprague-Dawley rat at 20 mg/kg, po measured for 24 hrs by LC-MS/MS analysis; assay type: ADME, organism-based; conditions: in vivo
MC-38 [4] = assay: Antitumor activity against mouse MC38 cells implanted in C57BL/6J mouse assessed as increase in granzyme B level at 5 to 20 mg/kg, ip qd for 13 days by IHC analysis; assay type: functional, organism-based; conditions: dose 5-20 mg/kg, time 13.0 day
[5] = Toxicity in C57BL/6J mouse implanted with mouse MC38 cells assessed as change in MPV count at 40 to 160 mg/kg, IG qd for 7 days; assay type: organism-based; conditions: in vivo, po, 168 h, dose 40-160 mg/kg, time 7 day
MC-38 [6] = assay: Antitumor activity against mouse MC38 cells implanted in C57BL/6J mouse administered intraperitoneally once a day for 13 days; assay type: functional, cell-based; conditions: dose 5-20 mg/kg, route ip, time 13.0 day
Mus musculus [7] = assay: Restoration of immune function in C57BL/6J mouse implanted with mouse MC38 cells assessed as increase in serum IL-2 level administered intraperitoneally once daily for 13 days by ELISA; assay type: functional, organism-based; conditions: dose 5-20 mg/kg, route ip, time 13.0 day
[8] = Toxicity in C57BL/6J mouse implanted with mouse MC38 cells assessed as change in MCHC count at 40 to 160 mg/kg, IG qd for 7 days; assay type: organism-based; conditions: in vivo, po, 168 h, dose 40-160 mg/kg, time 7 day
[9] = Toxicity in C57BL/6J mouse implanted with mouse MC38 cells assessed as change in PCT count at 40 to 160 mg/kg, IG qd for 7 days; assay type: organism-based; conditions: in vivo, po, 168 h, dose 40-160 mg/kg, time 7 day
[10] = Toxicity in C57BL/6J mouse implanted with mouse MC38 cells assessed as injury in heart at 5 to 20 mg/kg, ip qd for 13 days by H and E staining based analysis; assay type: organism-based; conditions: in vivo, 312 h, dose 5-20 mg/kg, time 13 day
[11] = Toxicity in C57BL/6J mouse implanted with mouse MC38 cells assessed as kidney weight ratio at 40 to 160 mg/kg, IG qd for 7 days; assay type: organism-based; conditions: in vivo, po, 168 h, dose 40-160 mg/kg, time 7 day
[12] = Toxicity in C57BL/6J mouse implanted with mouse MC38 cells assessed as change in MCV count at 40 to 160 mg/kg, IG qd for 7 days; assay type: organism-based; conditions: in vivo, po, 168 h, dose 40-160 mg/kg, time 7 day
[13] = AUC (0 to infinity) in Sprague-Dawley rat at 20 mg/kg, po measured for 24 hrs by LC-MS/MS analysis; assay type: ADME, organism-based; conditions: in vivo
[14] = Cmax in Sprague-Dawley rat at 10 mg/kg, ip measured for 24 hrs by LC-MS/MS analysis; assay type: ADME, organism-based; conditions: in vivo
MC-38 [15] = assay: Inhibition of cell proliferation of mouse MC38 cells implanted in C57BL/6J mouse assessed as reduction in Ki67 level at 5 to 20 mg/kg, ip qd for 13 days by IHC analysis; assay type: functional, organism-based; conditions: dose 5-20 mg/kg, time 13.0 day
[16] = Toxicity in C57BL/6J mouse implanted with mouse MC38 cells assessed as change in ALT level at 40 to 160 mg/kg, IG qd for 7 days; assay type: organism-based; conditions: in vivo, po, 168 h, dose 40-160 mg/kg, time 7 day
[17] = Toxicity in C57BL/6J mouse implanted with mouse MC38 cells assessed as change in PDW count at 40 to 160 mg/kg, IG qd for 7 days; assay type: organism-based; conditions: in vivo, po, 168 h, dose 40-160 mg/kg, time 7 day
[18] = Toxicity in C57BL/6J mouse implanted with mouse MC38 cells assessed as injury in lung at 5 to 20 mg/kg, ip qd for 13 days by H and E staining based analysis; assay type: organism-based; conditions: in vivo, 312 h, dose 5-20 mg/kg, time 13 day
[19] = AUC (0 to 24 hrs) in Sprague-Dawley rat at 1 mg/kg, iv measured for 24 hrs by LC-MS/MS analysis; assay type: ADME, organism-based; conditions: in vivo
[20] = Drug uptake in mouse MC38 cells incubated for 48 hrs by LC-MS/MS analysis; assay type: ADME, cell-based; conditions: mc-38, 48 h, dose 1-10 µM
[21] = Toxicity in C57BL/6J mouse implanted with mouse MC38 cells assessed as change in excised body weight at 40 to 160 mg/kg, IG qd for 7 days; assay type: organism-based; conditions: in vivo, po, 168 h, dose 40-160 mg/kg, time 7 day
[22] = Clearance in Sprague-Dawley rat at 20 mg/kg, po measured for 24 hrs by LC-MS/MS analysis; assay type: ADME, organism-based; conditions: in vivo
[23] = Toxicity in C57BL/6J mouse implanted with mouse MC38 cells assessed as drug tolerance at 5 to 20 mg/kg, ip qd for 13 days; assay type: organism-based; conditions: in vivo, 312 h, dose 5-20 mg/kg, time 13 day
Mus musculus [24] = assay: Restoration of immune function in C57BL/6J mouse implanted with mouse MC38 cells assessed as increase in serum TNF-alpha level administered intraperitoneally once daily for 13 days by ELISA; assay type: functional, organism-based; conditions: dose 5-20 mg/kg, route ip, time 13.0 day
[25] = target: Programmed cell death protein 1/Programmed cell death 1 ligand 1 (Homo sapiens) (UniProt Q15116+Q9NZQ7); assay: Inhibition of PD-1/PD-L1 (unknown origin) interaction in human PBMC cells assessed as increase in IFN-gamma level at 100 nM pretreated with anti-CD3/CD28 and PD-L1 followed by compound addition measured after 72 hrs by ELISA; assay type: cell-based
[26] = Toxicity in C57BL/6J mouse implanted with mouse MC38 cells assessed as injury in liver at 5 to 20 mg/kg, ip qd for 13 days by H and E staining based analysis; assay type: organism-based; conditions: in vivo, 312 h, dose 5-20 mg/kg, time 13 day
[27] = Toxicity in C57BL/6J mouse implanted with mouse MC38 cells assessed as change in AST level at 40 to 160 mg/kg, IG qd for 7 days; assay type: organism-based; conditions: in vivo, po, 168 h, dose 40-160 mg/kg, time 7 day
[28] = Toxicity in C57BL/6J mouse implanted with mouse MC38 cells assessed as spleen weight ratio at 40 to 160 mg/kg, IG qd for 7 days; assay type: organism-based; conditions: in vivo, po, 168 h, dose 40-160 mg/kg, time 7 day
[29] = Half life in Sprague-Dawley rat at 1 mg/kg, iv measured for 24 hrs by LC-MS/MS analysis; assay type: ADME, organism-based; conditions: in vivo
[30] = Oral bioavailability in Sprague-Dawley rat at 20 mg/kg measured for 24 hrs by LC-MS/MS analysis; assay type: ADME, organism-based; conditions: in vivo
[31] = target: Programmed cell death protein 1/Programmed cell death 1 ligand 1 (Homo sapiens, UniProt Q9NZQ7); assay: Inhibition of interaction of PD-1/PD-L1 (unknown origin) by HTRF analysis; assay type: protein-complex assay
[32] = Toxicity in C57BL/6J mouse implanted with mouse MC38 cells assessed as change in liver index at 5 to 20 mg/kg, ip qd for 13 days; assay type: organism-based; conditions: in vivo, 312 h, dose 5-20 mg/kg, time 13 day
[33] = Toxicity in C57BL/6J mouse implanted with mouse MC38 cells assessed as change in kidney index at 5 to 20 mg/kg, ip qd for 13 days; assay type: organism-based; conditions: in vivo, 312 h, dose 5-20 mg/kg, time 13 day
[34] = Toxicity in C57BL/6J mouse implanted with mouse MC38 cells assessed as change in serum ALT level at 5 to 20 mg/kg, ip qd for 13 days; assay type: organism-based; conditions: in vivo, 312 h, dose 5-20 mg/kg, time 13 day
MC-38 [35] = assay: Antitumor activity against mouse MC38 cells implanted in C57BL/6J mouse at 160 mg/kg, IG qd for 7 days relative to control; assay type: functional; conditions: MC-38, po, 168 h, time 7 day, read-out: TGI
[36] = Clearance in Sprague-Dawley rat at 1 mg/kg, iv measured for 24 hrs by LC-MS/MS analysis; assay type: ADME, organism-based; conditions: in vivo

Chain of Programmed cell death protein 1/Programmed cell death 1 ligand 1 (Q15116 whole entry): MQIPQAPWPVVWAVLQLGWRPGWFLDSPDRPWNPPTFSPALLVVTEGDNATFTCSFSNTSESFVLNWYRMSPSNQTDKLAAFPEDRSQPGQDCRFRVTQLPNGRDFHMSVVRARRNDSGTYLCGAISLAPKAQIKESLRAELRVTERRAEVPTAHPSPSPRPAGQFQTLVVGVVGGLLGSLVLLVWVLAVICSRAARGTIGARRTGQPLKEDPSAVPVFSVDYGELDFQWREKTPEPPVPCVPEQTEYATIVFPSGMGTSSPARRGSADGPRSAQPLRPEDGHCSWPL
Chain of Programmed cell death protein 1/Programmed cell death 1 ligand 1 (Q9NZQ7 whole entry): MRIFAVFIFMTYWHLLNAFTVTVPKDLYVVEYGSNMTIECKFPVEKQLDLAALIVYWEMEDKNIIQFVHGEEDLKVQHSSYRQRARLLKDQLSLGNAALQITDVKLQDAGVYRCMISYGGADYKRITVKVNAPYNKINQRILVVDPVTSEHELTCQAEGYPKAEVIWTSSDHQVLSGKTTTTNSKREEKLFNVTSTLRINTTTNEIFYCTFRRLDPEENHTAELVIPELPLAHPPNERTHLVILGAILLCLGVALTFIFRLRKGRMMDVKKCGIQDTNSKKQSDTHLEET

In the case of `C[C@H](N)C(=O)N1Cc2ccc(-c3cccc(-c4ccc5c(c4)OCCO5)c3Cl)cc2C1.Cl`, the Activity [1] is reported as “Non-toxic”, the Activity [2] is reported as “Non-toxic” and the Cmax [3] is reported as 151 ng/mL. For the same compound, the Activity (MC-38 [4]) was “Active”, the Activity [5] was “Non-toxic” and the Activity (MC-38 [6]) was “Dose-dependent-effect”. For the same compound, the Activity (Mus musculus [7]) was “Dose-dependent-effect”, the Activity [8] was “Non-toxic” and the Activity [9] was “Non-toxic”. For the same compound, the Activity [10] was “Non-toxic”, the Activity [11] was “Non-toxic” and the Activity [12] was “Non-toxic”. For the same compound, the AUC(0-inf) [13] was 644 ng·h/mL, the Cmax [14] was 412 ng/mL and the inhibition (MC-38 [15]) was “Active”. For the same compound, the Activity [16] was “Non-toxic”, the Activity [17] was “Non-toxic” and the Activity [18] was “Non-toxic”. For the same compound, the AUC(0-t) at 24 h [19] was 180 ng·h/mL, the Drug uptake [20] was “Dose-dependent-effect” and the Activity [21] was “Non-toxic”. The CL/F [22] was 401 mL/min/kg, the Activity [23] was “Non-toxic” and the Activity (Mus musculus [24]) was “Dose-dependent-effect”. The inhibition [25] was “Active”, the Activity [26] was “Non-toxic” and the Activity [27] was “Non-toxic”. The Activity [28] was “Non-toxic”, the half-life [29] was 96.6 min and the bioavailability [30] was 21.4%. For the same compound, the IC50 [31] was 4.8 nM, the Activity [32] was “Non-toxic” and the Activity [33] was “Non-toxic”. For the same compound, the Activity [34] was “Non-toxic”, the inhibition in vivo at 160 mg/kg (MC-38 [35]) was 64.4% and the clearance [36] was 87.7 mL/min/kg.
